# Tests used:
# [1] = biological target: T1, mouse odorant receptors (ORs) (Mus musculus, UniProt Q8VG42); assay: CRE-luciferase assay of odorant receptor activation (Dual-Glo, Hana3A cells, RTP1S), dose-response EC50; assay type: cell-based; conditions: receptor MOR204-6; for log EC50, MOR204-6: 0 = no response
# T1 construct: OR open reading frames were amplified from genomic DNA; expressed in transfected cells; host or cells: Hana3A cells, co-transfected with RTP1S, CRE-luciferase and pRL-SV40
# T1 sequence (Q8VG42 1-310): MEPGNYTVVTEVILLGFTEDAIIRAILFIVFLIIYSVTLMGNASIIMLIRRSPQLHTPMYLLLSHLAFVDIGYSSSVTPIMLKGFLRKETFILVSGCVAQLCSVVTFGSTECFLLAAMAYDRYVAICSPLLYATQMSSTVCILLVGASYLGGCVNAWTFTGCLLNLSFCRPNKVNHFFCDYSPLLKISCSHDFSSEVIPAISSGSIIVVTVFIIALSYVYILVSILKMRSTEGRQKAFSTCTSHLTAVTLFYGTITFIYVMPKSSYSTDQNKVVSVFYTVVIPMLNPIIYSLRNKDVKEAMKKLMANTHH
# [2] = biological target: T2, mouse odorant receptors (ORs) (Mus musculus, UniProt P23275); assay: as above; assay type: cell-based; conditions: receptor MOR256-17; read-out: log EC50 of odorant at MOR256-17 (0 = no response) (converted)
# T2 construct: OR open reading frames were amplified from genomic DNA; expressed in transfected cells; host or cells: Hana3A cells, co-transfected with RTP1S, CRE-luciferase and pRL-SV40
# T2 sequence (P23275 1-312): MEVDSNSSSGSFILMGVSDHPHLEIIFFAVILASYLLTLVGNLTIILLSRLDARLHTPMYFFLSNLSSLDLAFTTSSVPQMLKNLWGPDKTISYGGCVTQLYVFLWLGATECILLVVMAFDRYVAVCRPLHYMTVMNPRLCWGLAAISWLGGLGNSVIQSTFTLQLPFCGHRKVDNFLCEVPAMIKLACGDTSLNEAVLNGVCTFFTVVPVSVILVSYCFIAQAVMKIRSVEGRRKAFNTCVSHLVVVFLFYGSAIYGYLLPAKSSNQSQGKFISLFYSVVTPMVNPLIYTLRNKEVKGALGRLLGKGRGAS
Structure (SMILES),"log EC50, MOR204-6 [1]",EC50 [2] [µM],also measured
C=C(C)[C@H]1CC=C(C)C(=O)C1 [(+)-Carvone],−3.85,–,–
CCCCCCCC(=O)O [Octanoic Acid],–,38.9,–
O=c1ccc2ccccc2o1 [Coumarin],–,–,"EC50 ([1]; read-out: log EC50 (Table 4 value), MOR204-6 (converted)): 7.96 µM"
CCCCCCCCC(=O)O [Nonanoic acid],–,20.2,–
"C=C(C)C1CC=C(C)C(=O)C1 (single isomer, unassigned; (-)) [(−)-Carvone]",−3.625,–,–
CCCCCCCCS [Octanethiol],–,40.9,–

# Source: patent US20100248390A1, “COMPOSITIONS AND METHODS FOR IDENTIFYING LIGANDS OF ODORANT RECEPTORS” (DUKE UNIVERSITY, priority 2009, published 2010)
